Data on one molecule can be found in US9938284B2, “Organic compounds” (INTRA-CELLULAR THERAPIES, INC., priority 2014, dated 2018).

The data set is described as follows: Pharmacokinetic analysis in mice, plasma and brain levels by LC-MS/MS. It counts as in vivo. The settings on record: male C57 BL/6 mice, 10 mg/kg oral (PO). The protocol: Pharmacokinetic Analysis of the Compounds of the Invention
Animals: Male, C57 BL/6 mice (Jackson Labs, 25-30 g in body weight) are provided by Jackson Laboratories. Up to five mice are housed per cage and are maintained under a 12 hour light/dark cycle with access to food and water ad libitum. All procedures for the handling and use of animals follow the guidelines of the Institutional Animal Care and Use Committee (IACUC) of Columbia University, in accordance with NIH guidelines. Eight week-old mice (N=3/dose level or treatment group) are used in the experiments.
Experimental Treatment: Compounds: Selected Compounds of the Invention are evaluated in the present study. […]
Compound Preparation: Powdered stocks of the test compound(s) are measured and dissolved in 3% 1N HCl, 5% Labrasol and 92% of 5% TPGS in 0.05M Citrate buffer (CB, pH 4.0). […]
Treatment of Animals: Mice (N=3 mice/dose/time point) receive a 10 mg/kg oral (PO) dose of the test compound(s) at time 0. […] Plasma and brain tissue samples are processed and analyzed by the analytical group using LC-MS/MS methods, as described below. […]
Each tube is vortexed, then centrifuged for 20 min at 15000 rpm using a Tomy benchtop centrifuge at 4° C. Standard is an internal standard used for LC-MS/MS quantitation. […]
RESULTS: Plasma and Brain Analysis: All the test compound(s) tested could be detected and analyzed when spiked into control plasma. […]

Take `Cc1nnc2n(C)c(=O)c3c(Nc4ccccc4)n(Cc4ccc(-c5cccc(F)n5)cc4)nc3n12` [Example 2, 2-(4-(6-Fluoro-pyridin-2-yl)-benzyl)-5,8-dimethyl-3-phenylamino-2H,5H-pyrazolo[4,3-e][1,2,4]triazolo[4,3-a]pyrimidin-4-one]: the oral bioavailability result is “display oral bioavailability”. Further, the Kp (C57BL/6, mouse, brain/plasma, 0.25-2 h, read-out: B/P ratio (Brain AUC(0-2h)/Plasma AUC(0-2h))) was no more than 0.15.
